According to patent US20230372290A1, “FORMULATIONS COMPRISING BOTANICAL EXTRACTS” (APEX BIOTECH RESEARCH PTY LTD, priority 2020, published 2023):
Like-named read-outs stand apart in the source and are kept apart here.

Legend:
[1] = tested on: ACE2 mRNA; format: cell-based, African green monkey (Chlorocebus sp)
[2] = tested on: ACE2 protein; assay: ACE2 protein by ELISA in cell lysate of CACO-2 cells; format: cell-based, human; settings: 72 hours, 1 μM daily for three days, compared to UP-P, FIG. 3
Description: FIG. 3 illustrates the expression of ACE2 protein by ELISA in cell lysate of CACO-2 cells 72 hours following treatment with andrographolide (UP-A) and piceid (UP-P) (1 μM) daily for three days.
For ACE2 protein measurements, Caco-2 cells were scraped from each well in ice-cold RIPA buffer for ELISA assays. To determine the quantity of ACE2 in Caco-2 cells an Angiotensin Converting Enzyme 2 (ACE2) ELISA Kit (CusaBio, Wuhan, Hubei, China, catalogue number: CSB-E17204m) was performed on samples as per the manufacturers protocol. Briefly, each of the samples was loaded with Sample Diluent in duplicate wells. A standard curve was prepared from a Standard solution provided. 0, 6.25, 12.5, 25, 50, 100, 200 and 400 μg/mL of the standard was added to a series of wells in duplicate. The final volume of each standard well was made up to […] with the addition of Sample Diluent. […] of provided Biotin-antibody (1×) was added to each well and then after washing steps, […] of HRP-avidin antibody (1×). The plate was put on shake mode on a CLARIOstarPlus Multi-Mode Microplate Reader (BMG Labtech, Ortenberg, Germany) to ensure proper mixing before being scanned at Ex/Em=570/540 nm in an end point mode.

[3] = tested on: SARS-CoV-2 (Vic 01); assay: microbe, parasite or virus in culture; format: cell-based; settings: for Microscopy at day 3: Vero cells, 1000 TCID50 SARS-CoV-2, cytopathic effect (CPE)
[4] = biological target: M^pro (Severe acute respiratory syndrome coronavirus 2, UniProt P0DTD1); assay: Initial in silico and enzymology studies targeting M^pro

## C=C1CCC2[C@@](C)(CC[C@@H](O)[C@@]2(C)CO)C1C/C=C1/C(=O)OCC1O (stereo partly drawn) [Andrographis, 3-[2-[Decahydro-6-hydroxy-5-(hydroxymethyl)-5,8a-dimethyl-2-methylene-1-napthalenyl]ethylidene]dihydro-4-hydroxy-2(3H)-furanone]
[1]; FIG. 2, decreasing at 48 hours and diminishing at 72 hours
  time of maximal effect on ACE2 mRNA expression: 24 h
[1]; FIG. 2 dose response
  concentration below which loss of efficacy is observed (ACE2 mRNA): below 0.5 μM
[1]; FIG. 2 dose response, no substantial increase in activity at higher doses
  concentration achieving the maximal response (ACE2 mRNA): 1 µM
[1]; Vero (AGM) cells, 24 hours, FIG. 2
  ACE2 mRNA expression: decreasing ACE2 mRNA expression
[1]; Vero (AGM) cells, 48 h, FIG. 1
  ACE2 mRNA expression: significantly decreased
[1]; Vero (AGM) cells, 48 h, FIG. 1, lowest dose
  dose with the greatest effect on ACE2 mRNA expression: 1 µM
[2]
  ACE2 protein levels by ELISA: decreased
[3]; Severe acute respiratory syndrome coronavirus 2, Vero, 72 h, read-out: IC50 calculated from virus titration (TCID50 data)
  IC50: 3.25 µM
[3]; alone and in combination with piceid and ursolic acid
  antiviral activity against SARS-CoV-2: showed antiviral activity
[3]; drug conc. 0.078125 μM
  Microscopy at day 3: CPE
[3]; drug conc. 0.15625 μM
  Microscopy at day 3: CPE
[3]; drug conc. 0.3125 μM
  Microscopy at day 3: CPE
[3]; drug conc. 0.625 μM
  Microscopy at day 3: CPE
[3]; drug conc. 1.25 μM
  Microscopy at day 3: CPE
[3]; drug conc. 2.5 μM
  Microscopy at day 3: CPE
[3]; drug conc. 5 μM
  Microscopy at day 3: CPE
[3]; drug conc. 10 μM
  Microscopy at day 3: CPE
[3]; drug conc. 20 μM
  Microscopy at day 3: CPE
[3]; drug conc. 40 μM
  Microscopy at day 3: Toxicity

## OCC1O[C@@H](Oc2cc(O)cc(/C=C/c3ccc(O)cc3)c2)C(O)C(O)[C@@H]1O (stereo partly drawn) [Piceid, 2-[3-Hydroxy-5-[(E)-2-(4-hydroxyphenyl)ethenyl]phenoxy]-6-(hydroxymethyl)oxane-3,4,5-triol]
[1]; Vero (AGM) cells, 48 h, FIG. 1
  ACE2 mRNA expression: no discernible effect
[3]; drug conc. 0.078125 μM
  Microscopy at day 3: CPE
[3]; drug conc. 0.15625 μM
  Microscopy at day 3: CPE
[3]; drug conc. 0.3125 μM
  Microscopy at day 3: CPE
[3]; drug conc. 0.625 μM
  Microscopy at day 3: CPE
[3]; drug conc. 1.25 μM
  Microscopy at day 3: CPE
[3]; drug conc. 2.5 μM
  Microscopy at day 3: CPE
[3]; drug conc. 5 μM
  Microscopy at day 3: CPE
[3]; drug conc. 10 μM
  Microscopy at day 3: CPE
[3]; drug conc. 20 μM
  Microscopy at day 3: CPE
[3]; drug conc. 40 μM
  Microscopy at day 3: CPE
[4]
  candidate targeting M^pro: promising candidate

## C[C@H]1[C@H](C)CC[C@]2(C(=O)O)CC[C@]3(C)C(=CC[C@@H]4[C@@]5(C)CC[C@H](O)C(C)(C)[C@@H]5CC[C@]43C)[C@H]12 [Ursolic acid, (1S,2R,4aS,6aR,6aS,6bR,8aR,10S,12aR,14bS)-10-Hydroxy-1,2,6a,6b,9,9,12a-heptamethyl-2,3,4,5,6,6a,7,8,8a,10,11,12,13,14b-tetradecahydro-1H-picene-4a-carboxylic acid]
[1]
  ACE2 mRNA expression: decreased ACE2 mRNA expression to a lesser extent in a dose dependent manner
[3]; drug conc. 0.078125 μM
  Microscopy at day 3: CPE
[3]; drug conc. 0.15625 μM
  Microscopy at day 3: CPE
[3]; drug conc. 0.3125 μM
  Microscopy at day 3: CPE
[3]; drug conc. 0.625 μM
  Microscopy at day 3: CPE
[3]; drug conc. 1.25 μM
  Microscopy at day 3: CPE
[3]; drug conc. 2.5 μM
  Microscopy at day 3: CPE
[3]; drug conc. 5 μM
  Microscopy at day 3: CPE
[3]; drug conc. 10 μM
  Microscopy at day 3: CPE
[3]; drug conc. 20 μM
  Microscopy at day 3: CPE
[3]; drug conc. 40 μM
  Microscopy at day 3: Toxicity
